Key:
[1] = molecular target: T1, caspase-1 (Homo sapiens, UniProt P29466); test: Screening on caspases inhibiting activity (recombinant enzyme, fluorogenic AMC substrate); type: biochemical; conditions: Irreversible Inhibitors; read-out: Kobs/[I] for caspase-1
T1 construct: made in house
T1 sequence (P29466 120-297 limits assumed): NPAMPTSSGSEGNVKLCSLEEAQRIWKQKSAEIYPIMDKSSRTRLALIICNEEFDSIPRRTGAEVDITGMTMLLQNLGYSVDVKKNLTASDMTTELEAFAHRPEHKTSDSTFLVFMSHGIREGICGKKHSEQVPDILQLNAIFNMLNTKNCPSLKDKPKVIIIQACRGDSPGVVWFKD
T1 sequence (P29466 317-404 limits assumed): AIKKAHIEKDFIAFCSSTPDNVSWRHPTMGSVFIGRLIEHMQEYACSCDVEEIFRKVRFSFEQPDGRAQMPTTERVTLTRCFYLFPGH
Procedure: (§1) In the present experiment, recombinant caspases were purified from a transformed bacterium after human caspase genes were cloned into the expression vector pET, and then used in the experiment (Thornberry, N.A. et .al. Nature, 1992, 356, 768. Thombeny, N.A. Methods in Enzymology, 1994, 615.).
(§2) Enzymatic activity was measured by a known procedure (Walker N.P.C. et al., Cell 1994, 78, 343). Briefly, 10 ng of recombinant protein was mixed with 50 mM Tris(pH 7.0), 1mM DTT, 0.5 mM EDTA, 10% Glycerol buffer containing 1∼100 µM of enzyme substrate, Ac-YVAD-AMC or Ac-DEVD-AMC and then the changes by isolated AMC at 37°C were recorded. The inhibitory activity for caspases was calculated from the early enzyme reaction rate by measuring the changes with fluorescence excited at […] and emitted at 460 nm (Range; Ki<100nM).

[2] = molecular target: T2, caspase-3 (Homo sapiens, UniProt P42574); test: as above; type: biochemical; conditions: Irreversible Inhibitors; read-out: Kobs/[I] for caspase-3
T2 construct: made in house
T2 sequence (P42574 29-175 limits assumed): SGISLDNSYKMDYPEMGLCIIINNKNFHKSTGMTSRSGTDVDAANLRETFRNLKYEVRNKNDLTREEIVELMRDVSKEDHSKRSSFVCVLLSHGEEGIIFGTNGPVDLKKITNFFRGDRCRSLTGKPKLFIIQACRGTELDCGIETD
T2 sequence (P42574 176-277 limits assumed): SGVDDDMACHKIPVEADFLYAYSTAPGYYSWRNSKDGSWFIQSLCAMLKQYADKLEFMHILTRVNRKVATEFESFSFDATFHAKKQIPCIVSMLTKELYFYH
Procedure: as §1, §2

[3] = system: Jurkat T cell; test: MTT assay of cell death induced by Anti-FAS antibody CH11; type: cell-based; conditions: Homo sapiens; Jurkat T cell treated with Anti-FAS antibody CH11, MTT; read-out: ED50 FAS Induced cell death
[4] = system: anti-Fas antibody-induced liver apoptosis; test: Anti-Fas antibody (Jo2)-induced liver apoptosis and lethality in mice; type: in vivo, C57BL/6 female mice
Procedure: […] C57BL/6 female mice(18-20 g) were injected i.p. with compound 33MP dissolved in vehicle which consists of olive oil and 10% DMSO, or vehicle alone, at 1 hr before i.v. injection with 10 µg of Anti-Fas antibody (Jo2). Following 4 hrs of i.v. injection with Jo2 antibody, animals were placed under inhaled isoflurane anesthesia for blood collection and liver isolation. Mice were also i.p. injected with 0.2 µg/20 g of TNFα and 12 mg/20 g of D-galactosamine(TNFα /GalN) and compound 33MP or its salt form (Compound 33MP-Na). 8 hrs later, blood and liver tissues were isolated from anesthetized animals. The liver tissues were snap-frozen and stored at -80° C until use. Plasma was isolated from blood by centrifugation at 12,000 x g for 10 min at 4° C and stored at -80° C. In some experiments for animal mortality, mice were i.p. injected with TNFα /GalN and caspase inhibitor was injected 1 hr before, simultaneously, 2 hrs, or 4 hrs after TNFα /GalN injection.
Whole tissues (0.5 g) were homogenated in ice-cold lysis buffer (5 mM Tris, 20 mM EDTA, 0.5% Triton-X 100, pH8.0). The lysate was centrifuged at 12,000 x g for 20 min at 4° C. The supernatant was obtained and extracted twice with a mixture of phenol and chloroform. One-tenth volume of 3 M sodium acetate was added to the solution, and DNA was precipitated by adding an equal volume of isopropanol. After storing at -20° C overnight, a DNA pellet was obtained by centrifugation at 12,000 x g for 15 min. at 4 ° C and washed twice with 75% ethanol. The pellet was dried and resuspended in 100 µl of 20 mM Tris-HCl, pH 8.0. After digesting RNA with DNase-free RNase (0.1 mg/ml) at 37 ° C for 1 hr, samples […] were electrophoresed through a 1.2% agarose gel in […] Tris borate + EDTA (TBE), pH 8.0 buffer. DNA was photographed under visualized with UV light.
Liver tissues were homogenated in 10 mM HEPES buffer containing protease inhibitors (5 µg/ml aprotinin, 5 µg/ml pepstatin A, 10 µg/ml leupeptin, and 0.5 mM PMSF) and lysed by three freeze/thaw cycles. The cytosolic fraction was obtained by centrifugation at 12,000 x g for 20 min. at 4" C. Protein concentration was determined with BCA protein assay reagent (pierce, Rockford, IL). Cytosol containing 200 µg protein was combined in 96-well plate with […] of synthetic substrate Ac-DEVD-pNA in 150 µl of 100 mM HEPES, pH 7.4, containing the protease inhibitors, and the reaction was conducted for 1 hr at 37° C. […] Plasma level of aspartate aminotransferase (AST) was analyzed by spectrophotometry using each enzyme assay kit (Sigma).

[5] = system: TNFα -mediated liver toxicity; test: TNFα-mediated liver toxicity and mortality in mice; type: in vivo, C57BL/6 female mice
[6] = mice treated with TNFα /ActD (so in the source)

CC(C)[C@H](NC(=O)c1cccc2ccccc12)C1=NOC(Cc2ccccc2)(C(=O)N[C@@H](CC(=O)O)C(=O)COC(=O)c2c(Cl)cccc2Cl)C1 (stereo partly drawn) [Compound 33mp, (3S)-3-{3-[2-methyl-(1S)-1-(1-naphthalenecarbonylamino)-propyl]-5-phenylmethyl-4,5-dihydro-isoxazole-5-carbonylamino}-4-keto-5-(2,6-dichlorobenzoyloxy)-pentanoic acid]
kinact/KI [1]: 807000 M⁻¹ s⁻¹ | kinact/KI [2]: 500 M⁻¹ s⁻¹ | EC50 [3]: 1 to 10 µM | liver apoptosis as determined by DNA fragmentation ([4]; 0.4 mg/20 g, 1 mg/20 g i.p. 1 hr before anti-Fas antibody, 4 hrs after antibody): suppressed the liver apoptosis in a dose-dependent manner | release of liver enzyme AST ([4]; anti-Fas antibody-treated mice): significantly suppressed | reduction of mortality ([4]; anti-Fas antibody-treated mice (85% died within 24 hrs without treatment)): about 30% | caspase-3-like activity in liver tissues ([4]; anti-Fas antibody-treated mice, Ac-DEVD-pNA): abrogated | animals survived ([5]; TNFα /ActD-mediated mouse mortality, within 24 hrs): 80% | DNA fragmentation in liver tissues [5, 6]: significantly reduced | caspase-3-like activity in liver [5, 6]: suppressed | release of AST [5, 6]: suppressed
